Reference: patent US9192585B2, “Inhibitors of cognitive decline” (Cognition Therapeutics, Inc., priority 2009, dated 2015)

Key:
[1] = system: Abeta oligomer effects on membrane trafficking in primary rat neurons; experiment: Primary neuron-based functional screening assay, membrane trafficking (Example EE); type: cell-based; details: for block of Abeta oligomer effects (decrease of intracellular formazan-filled vesicles): added to cultures prior to oligomer addition, FIG. 2A
Text: Primary rat neurons grown for at least 3 weeks in vitro were chosen as the basis for this screening assay. […] More complex systems such as acute or organotypic brain slices are very useful but not amenable to high throughput screening. […] For this reason, primary neuronal cultures were chosen because of their ability to be used in high throughput screens and fidelity to what occurs in vivo.
The MTT assay can be used as a measure of toxicity in cultures. Yellow tetrazolium salts were endocytosed by cells and reduced to insoluble purple formazan in the endosomal pathway. The level of purple formazan was a reflection of the number of actively metabolizing cells in culture, and reduction in the amount of formazan was taken as a measure of cell death or metabolic toxicity in culture.
The exocytosis assay was adapted for use with mature primary neuronal cultures grown for 3 weeks in vitro.
Compounds were added to neurons first, then oligomers were added.
Data were the average of 3 experiments. Scale bar=20 micron in FIG. 2D.

[2] = system: Abeta oligomer-mediated memory deficits; experiment: Fear conditioning assay (Example FF); type: in vivo; details: mice
Method: CT0109 was tested in an animal model of a memory-dependent behavioral task known as fear conditioning. The study protocol was designed based on published protocols (See e.g. Puzzo D, Privitera L, Leznik E, FàM, Staniszewski A, Palmeri A, Arancio O. Picomolar amyloid-beta positively modulates synaptic plasticity and memory in hippocampus. J Neurosci. 2008 Dec. 31; 28(53):14537-45). The formation of contextual memories is dependent upon the integrity of medial temporal lobe structures such as the hippocampus. In this assay mice were trained to remember that a particular salient context (conditioned stimulus; CS) is associated with an aversive event, in this case a mild foot shock (the unconditioned stimulus, US). Animals that show good learning will express an increase in freezing behavior when placed back into the same context. This freezing is absent in a novel context. Increased freezing in the context indicates strong hippocampal-dependent memory formation in animals. Memory tested in Fear Conditioning is sensitive to elevations of soluble Aβ. […] The fear condition model for memory was performed as described herein.

[3] = system: Abeta oligomer-induced acceleration of exocytosis in primary neurons; experiment: Exocytosis assay/MTT assay (Example AA); type: cell-based; details: Rattus norvegicus, Primary neuron; 28 μM memantine, control; read-out: inhibition of oligomer effects
Method: Primary neurons from E18 Sprague-Dawley rat embryos are plated at optimized concentrations in 384 well plates in NB media (Invitrogen). Neurons are maintained in cultures for 3 weeks, with twice weekly feeding of NB media with N2 supplement (Invitrogen). A test compound is added to cells, followed by addition of Vehicle or Abeta oligomer preparations (1.5 μM), and incubated for 1 to 24 hr at 37° C. in 5% CO2. MTT reagent (3-(4,5-dimethylthiazol-2-yl)-2,5diphenyl tetrazolium bromide) (Roche Molecular Biochemicals) is reconstituted in phosphate buffered saline to 5 mg/mL. 10 μL of MTT labeling reagent is added to each well and incubated at 37° C. for 1 h, then imaged. […]
Optimal cell density is determined based on cellular response to Abeta oligomers using the exocytosis assay as a readout, and immunohistochemical analysis of the relative proportion of glia to neurons in the cultures. Cultures are monitored on a weekly basis with immunohistochemistry and image processing-based quantification to monitor the percentage of the cultures that are neurons vs. glia (Glial cells). […]
Human amyloid peptide 1-42 is obtained from California Peptide, with lot-choice contingent upon quality control analysis. […] Toxicity is monitored in each image-based assay via quantification of nuclear morphology visualized with the DNA binding dye DAPI (Invitrogen). […]

O[C@H]1[C@H](O)[C@@H](O)[C@H](O)[C@@H](O)[C@@H]1O [scyllo-inositol]
block of Abeta oligomer effects (decrease of intracellular formazan-filled vesicles) [1]: none were active

C[C@]12N[C@H](Cc3ccccc31)c1ccccc12 [MK-801]
block of Abeta oligomer effects (decrease of intracellular formazan-filled vesicles) [1]: none were active

COc1cc(CCC(C)NCc2ccc(C(F)(F)F)cc2)ccc1O (stereo not drawn) [CT0109, 4-(3-(4-(trifluoromethyl)benzylamino)butyl)-2-methoxyphenol]
block of oligomer-mediated memory deficits at 2 pmol dose ([2]; 2 pmol dose + Abeta (200 nM), FIG. 3 bar d, p<0.05): completely blocked | block of oligomer effects on memory ([2]; administered prior to Abeta oligomer administration, across doses): blocked oligomer effects on memory in a dose-dependent manner | adverse behavioral changes ([2]; any dose): No adverse behavioral changes | effect of compound alone on memory ([2]; without Abeta, data not shown): No effect | EC50 ([1]; Rattus norvegicus, Neuron, FIG. 2B, read-out: EC50, inhibition of oligomer effects on membrane trafficking): 7 µM

CC12CC3CC(C)(C1)CC(N)(C3)C2 [Memantine, memantine]
inhibition at 28 µM [3]: 50%

C[N+](C)(C)CCCCCC[N+](C)(C)C [hexamethonium bromide]
block of Abeta oligomer effects (decrease of intracellular formazan-filled vesicles) [1]: none were active
